# Assay results taken from patent US10239881B2, “RIPK2 inhibitors and method of treating cancer with same” (University Health Network, priority 2014, dated 2019).
# Columns and labels:
# human RIPK2 kinase = human RIPK2 kinase (Homo sapiens (Human), UniProt O43353); assay: RIPK2 inhibition assay (indirect ELISA); assay type: biochemical; details: His-RIPK2 0.6 nM, 6 μM ATP; read-out: RIPK2 IC50 range
# Description: Active RIPK2 was purchased from Life Technologies as His-tagged of catalityc domain (amin acids 1-299) of human RIPK2 kinase expressed in insect cells. Amino terminal 6 histidine, sumo tagged human TTK (residues 1-275) was expressed in E. coli, and purified to >95% homogeneity by Ni^2+ agarose, gel filtration, and ion exchange chromatography.
# RIPK2 activity was measured using an indirect ELISA detection system. His—RIPK2 (0.6 nM) was incubated in the presence of 6 μM ATP (Sigma cat # A7699), 20 mM Hepes, pH 7.5, 1 mM EGTA, 2.5 mM MgCl2, 2.5 mM MnCl2 and 0.01% Triton X-100 in a 96 well microtitre plate pre-coated with amino terminal 6 histidine, sumo tagged TTK (amino acid residues 1-275). The reaction was allowed to proceed for 30 minutes, followed by 5 washes of the plate with Wash Buffer (phosphate buffered saline supplemented with 0.2% Tween 20), and incubation for 30 minutes with a 1:3000 dilution of primary antibody (Cell Signaling cat #9381). The plate was washed 5 times with Wash Buffer, incubated for 30 minutes in the presence of secondary antibody coupled to horse radish peroxidase (BioRad cat #1721019, 1:3000 concentration), washed an additional 5 times with Wash Buffer, and incubated in the presence of TMB substrate (Sigma cat # T0440). The colorimetric reaction was allowed to continue for 5 minutes, followed by addition of stop solution (0.5 N H2SO4), and quantified by detection at 450 nm with either a monoChromatic or filter based plate reader (Molecular Devices M5 or Beckman DTX880, respectively).
# Compound inhibition was determined at either a fixed concentration (10 μM) or at a variable inhibitor concentration (typically 50 μM to 0.1 μM in a 10 point dose response titration). Compounds were pre-incubated in the presence of enzyme for 15 minutes prior to addition of ATP and the activity remaining quantified using the above described activity assay. The % Inhibition of a compound was determined using the following formula; % Inhibition=100×(1−(experimental value−background value)/(high activity control−background value)). The IC50 value was determined using a non-linear 4 point logistic curve fit (XLfit4, IDBS) with the formula; (A+(B/(1+((x/C)^D)))), where A=background value, B=range, C=inflection point, D=curve fit parameter.
# [1] = system: SKOV-3 ovarian cancer cells; assay: Sulforhodamine B cell growth inhibition assay; assay type: cell-based; details: Homo sapiens, SK-OV-3, 120 h; 5 days, SRB; read-out: Ovarian GI50 range SKOV-3
# Description: (§1) Breast cancer cells (MDA-MB-231 and MDA-MB-468), colon cancer cells (HCT116 and HT-29) and ovarian cancer cells (SKOV-3 and OVCAR-3) were seeded (1000 to 4000 in 80 μL per well depending on the cell growth rate) into 96 well plates 24 hours before compound overlay. Compounds were prepared as 10 mM stock solutions in 100% DMSO which were diluted with DMEM (Dulbecco's Modified Eagle's Medium) cell growth Medium (Invitrogen, Burlington, ON, Canada) containing 10% FBS (Fetal Bovine Serum) to concentrations ranging from 50 nM to 250 μM. Aliquots (20 μL) from each concentration were overlaid to 80 μL of the pre-seeded cells in the 96 well plates to make final concentrations of 10 nM to 50 μM. The cells were cultured for 5 days before the Sulforhodamine B assay (SRB) was performed to determine the compound's cell growth inhibition activity.
# (§2) The cells are fixed in situ by gently aspirating off the culture media and adding 50 μL ice cold 10% trichloroacetic acid per well and incubate at 4° C. for 30-60 min. The plates are washed with H2O five times and allowed to air dry for 5 min. Addition of 50 μL 0.4% (w/v) SRB solution in 1% (v/v) acetic acid to each well and incubation for 30 min at rt completes the staining reaction. Following staining, plates are washed four times with 1% acetic acid to remove unbound dye and then allowed to air dry for 5 min. The stain is solubilized with 100 μL of 10 mM Tris pH 10.5 per well. Absorbance is read at 570 nm. The percentage (%) of relative growth inhibition was calculated by comparing to DMSO treated only cells (100%). GI50's were determined for compounds with cytotoxic activity. The GI50 was calculated using GraphPad PRISM software (GraphPad Software, Inc., San Diego, Calif., USA). GI50 (growth inhibition) is the compound concentration that causes 50% inhibition of cell growth.
# (§3) In Table 2 lists GI50 value ranges for compound examples against breast cancer cell lines (MDA-MB-231, MDA-MB-468), colon cancer cell lines (HCT116, HT-29) and ovarian cancer cell lines (OVCAR-3, SKOV-3) are given. […] The GI50 ranges are indicated as “A,” “B,” and “C,” for values less than or equal to 1 μM; those greater than 1 μM and less than or equal to 10 μM; and those greater than 10 μM, respectively.
# [2] = system: MDA-MB-231 breast cancer cells; assay: Sulforhodamine B cell growth inhibition assay; assay type: cell-based; details: Homo sapiens, MDA-MB-231, 120 h; 5 days, SRB; read-out: Breast GI50 range MDA-MB-231
# Description: as §1, §2, §3
# HT-29 colon cancer cells = assay: Sulforhodamine B cell growth inhibition assay; assay type: cell-based; details: Homo sapiens, HT-29, 120 h; 5 days, SRB; read-out: Colon GI50 range HT29
# Description: as §1, §2, §3
# [3] = system: OVCAR-3 ovarian cancer cells; assay: Sulforhodamine B cell growth inhibition assay; assay type: cell-based; details: Homo sapiens, OVCAR-3, 120 h; 5 days, SRB; read-out: Ovarian GI50 range OVCAR-3
# Description: as §1, §2, §3
# [4] = system: MDA-MB-468 breast cancer cells; assay: Sulforhodamine B cell growth inhibition assay; assay type: cell-based; details: Homo sapiens, MDA-MB-468, 120 h; 5 days, SRB; read-out: Breast GI50 range MDA-MB-468
# Description: as §1, §2, §3
# [5] = system: HCT116 colon cancer cells; assay: Sulforhodamine B cell growth inhibition assay; assay type: cell-based; details: Homo sapiens, HCT-116, 120 h; 5 days, SRB; read-out: Colon GI50 range HCT116
# Description: as §1, §2, §3
# [6] = system: mouse bone marrow dendritic cells; assay: Dendritic cell viability by 7AAD exclusion; assay type: cell-based; details: stimulated 24 hours with LPS or Pam3Cys ± 1 μg/ml MDP
# Description: (§4) IL-12-yellow fluorescent protein (YFP) reporter mouse bone marrow dendritic cells were stimulated for 24 hours with 0.3 ng/ml LPS±1 μg/ml MDP (i.e., NOD2 agonist) in the presence of Example A3 (FIG. 2A). IL-12-yellow fluorescent protein (YFP) reporter mouse bone marrow dendritic cells were stimulated for 24 hours with 0.3 μg/ml Pam3Cys±1 μg/ml MDP (i.e., NOD2 agonist) in the presence of Example A3 (FIG. 2B). […] Data are represented as the mean±SEM of triplicate measurements. Levels of IL-12 p70 (FIG. 2C, left panel) and TNFα (FIG. 2C, right panel) in the cell culture supernatants from A were measured by ELISA techniques with commercially available kits. […] Data are represented as the mean±SEM of triplicate measurements.
# TNFα = TNFα in dendritic cell culture supernatants by ELISA; assay type: cell-based, mouse; details: 0.3 ng/ml LPS ± 1 μg/ml MDP, 24 hours
# Description: as §4
# [7] = system: IL-12-yellow fluorescent protein (YFP) reporter mouse bone marrow dendritic cells; assay: IL-12-YFP reporter dendritic cells, flow cytometric analysis; assay type: cell-based; details: stimulated 24 hours with LPS or Pam3Cys ± 1 μg/ml MDP
# Description: FIGS. 2(A)-(C) are graphs illustrating the effects of compound A3 on cytokine production by dendritic cells.
# as §4
# IL-12 p70 = IL-12 p70 in dendritic cell culture supernatants by ELISA; assay type: cell-based, mouse; details: 0.3 ng/ml LPS ± 1 μg/ml MDP, 24 hours
# Description: as §4
# human RIPK2 kinase, sequence (O43353 1-299): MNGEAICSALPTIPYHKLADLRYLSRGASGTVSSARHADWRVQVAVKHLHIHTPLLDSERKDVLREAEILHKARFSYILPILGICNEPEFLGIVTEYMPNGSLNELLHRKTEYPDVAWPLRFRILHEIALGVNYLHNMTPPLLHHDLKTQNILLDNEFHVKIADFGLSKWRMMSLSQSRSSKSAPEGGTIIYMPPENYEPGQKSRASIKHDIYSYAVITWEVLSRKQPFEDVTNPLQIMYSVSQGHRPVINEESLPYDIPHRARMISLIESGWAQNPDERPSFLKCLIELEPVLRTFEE
IC50 (human RIPK2 kinase),GI50 [1],GI50 [2],GI50 (HT-29 colon cancer cells),GI50 [3],GI50 [4],GI50 [5],Compound,cell viability as assessed by 7AAD exclusion [6],levels of TNFα in cell culture supernatants (TNFα),percentage of YFP positive cells (percentage of IL-12 positive cells) [7],mean fluorescence intensity YFP (amount of IL-12) ([7]; MDP-dependent),levels of IL-12 p70 in cell culture supernatants (IL-12 p70)
≤ 100 nM,≤ 1000 nM,≤ 1000 nM,≤ 1000 nM,≤ 1000 nM,≤ 1000 nM,≤ 1000 nM,"Cc1ccccc1-c1cc2nc(Nc3cccc(N4CCOCC4)c3)ncc2[nH]1 [Example A3, N-(3-morpholinophenyl)-6-(o-tolyl)-5H-pyrrolo[3,2-d]pyrimidin-2-amine]",no measurable effect,dose-dependent reduction,minimal effect,dose-dependent reduction,dose-dependent reduction
≤ 100 nM,1000 to 10000 nM,1000 to 10000 nM,1000 to 10000 nM,1000 to 10000 nM,1000 to 10000 nM,1000 to 10000 nM,"Cc1ccccc1-c1cc2nc(Nc3ccc(OC4CCN(C)CC4)cc3)ncc2[nH]1 [Example A2, N-(4-((1-methylpiperidin-4-yl)oxy)phenyl)-6-(o-tolyl)-5H-pyrrolo[3,2-d] pyrimidin-2-amine]",,,,,
100 to 500 nM,≤ 1000 nM,≤ 1000 nM,≤ 1000 nM,≤ 1000 nM,≤ 1000 nM,≤ 1000 nM,"Fc1ccccc1-c1cc2nc(Nc3cccc(N4CCOCC4)c3)ncc2[nH]1 [Example A13, 6-(2-fluorophenyl)-N-(3-morpholino-phenyl)-5H-pyrrolo[3,2-d]pyrimidin-2-amine]",,,,,
≤ 100 nM,1000 to 10000 nM,≤ 1000 nM,≤ 1000 nM,≤ 1000 nM,≤ 1000 nM,≤ 1000 nM,"Cc1ccccc1-c1cc2nc(Nc3cccc(N4CCN(C)CC4)c3)ncc2[nH]1 [Example A4, N-(3-(4-methylpiperazin-1-yl)phenyl)-6-(o-tolyl)-5H-pyrrolo[3,2-d]pyrimidin-2-amine]",,,,,
